Structures are written as SMILES.

This test concerns SU-DHL-1. In words: Cytotoxicity against human SU-DHL-1 cells incubated for 72 hrs by CCK-8 assay. To be noted: SU-DHL-1, 72 h. It is filed as functional, cell-based.

`Cc1cc(Nc2ncc(N)c(Nc3ccccc3S(=O)(=O)C(C)C)n2)c(OC(C)C)cc1C1CCN(C(=O)CCCC(=O)N[C@@H](C(=O)N2C[C@H](OC(=O)CCCCn3cc(CNC(=O)CCC(NC(=O)c4ccc(NCc5cnc6nc(N)[nH]c(=O)c6n5)cc4)C(=O)O)nn3)C[C@H]2C(=O)N[C@@H](C)c2ccc(-c3scnc3C)cc2)C(C)(C)C)CC1` (stereo partly specified) had an IC50 of 200 nM. This lies in the sub-micromolar range.

The values are drawn from ChEMBL document CHEMBL5214967, “Natural Product-Inspired Targeted Protein Degraders: Advances and Perspectives” (J Med Chem, 2022).
